# Reference: US20240398738A1, “MANIPULATION OF THE RETINOIC ACID SIGNALING PATHWAY” (THE REGENTS OF THE UNIVERSITY OF CALIFORNIA, priority 2017, published 2024)
# Entries after “also recorded” stand apart in the source; their conditions may differ.
# Columns and labels:
# Format in all cases: in vivo, mouse
# [1] = tested on: retinal neurons (photoreceptors); assay: TUNEL assay after intravitreal injection; details: WT, 5-6 days after intravitreal injection, ATRA 100 nM
# Description: Immunolabeling and TUNEL assay. S334ter rat retinas infected with the RARE double reporter were dissected, fixed and frozen, as previously described (54). The tissue was cut in 14 μm thick cross-sections using a Leica cryostat. Immunocytochemical solution (ICC) was composed of standard 1×PBS (Gibco), 2.5% BSA (Sigma) and 0.1% Triton (Sigma). The tissue was blocked using ICC solution supplemented with unconjugated rabbit anti-mouse secondary antibody (Life Technologies) at RT for 1 hr. Slides were incubated with primary mouse anti-GFP antibody (#JL8, Clontech), with no RFP cross-reactivity, at 4° C. ON. An Alexa Fluor-488 conjugated goat anti-mouse secondary antibody (Life Technologies) was used at RT for 1 hr in the dark. The same procedure was carried out for detection of RARβ in mouse retinas following injection of vehicle or ATRA. Slides were incubated with a primary rabbit anti-RARβ antibody (ab53161, Abcam) and detected using an Alexa Fluor-488 conjugated goat anti-rabbit secondary antibody (Life Technologies). TUNEL assay (In Situ Cell Death Detection Kit, Roche) was carried out per manufacturer's instructions. Retinas were collected 5-6 days following injection with vehicle, ATRA, or ATRA and Liarozole.
# TUNEL assay. TUNEL assay (In Situ Cell Death Detection Kit, Roche) was carried out per manufacturer's instructions. […]
# RGCs in rd1 retina [2] = assay: MEA recording of RGC spontaneous activity in darkness, rd1 retina
# Method: (§1) Intravitreal Injections. Before injection, mice were anesthetized with isoflurane (2%) and their pupils were dilated with tropicamide (1%) and phenylephrine (2.5%). Proparacaine (0.5%) was used as a topical analgesic. Genteal was applied under a glass coverslip to keep the cornea lubricated. An incision was made through the sclera below the ora serrata with a 30G needle and ˜1 μl of solution was injected into the vitreous with a blunt-ended 33G Hamilton syringe. After injection, the antibiotic tobramycin (0.3%) was applied to the eye. Final drug concentrations after intravitreal injection were: all-trans retinoic acid (ATRA, 100 nM), liarozole (100 μM), diethylaminobenzaldehyde (DEAB, 20 μM), citral (50 μM), BMS-493 (500 nM), and retinaldehyde (1 μM). The above values correspond to the final concentration in the eye after injecting 1 μl of drug accounting for a 5-fold dilution. An injection of PBS including 1% DMSO was used as vehicle control.
# Multi Electrode Array Recordings. For extracellular recordings, a flat-mounted retina was placed ganglion cell layer down onto a 60-electrode Multi-Electrode Array (MEA 1060-2-BC, Multi-Channel Systems). […] Extracellular spikes were high-pass filtered at 200 Hz and digitized at 20 kHz and were counted when exceeding 4 SD from the mean background voltage signal. Typically, each electrode recorded spikes from one to three individual RGCs. […]
# RGCs in rd1 retina [3] = assay: MEA recording of photoswitch (QAQ, BENAQ) photosensitization in rd1 retina
# Method: as §1
# Multi Electrode Array Recordings. For extracellular recordings, a flat-mounted retina was placed ganglion cell layer down onto a 60-electrode Multi-Electrode Array (MEA 1060-2-BC, Multi-Channel Systems). After mounting the retina, photoswitches were applied for 30 min, followed by a 15 min wash. BENAQ was applied at a concentration of 100 μM and QAQ at 300 μM. A solution containing a mixture of neurotransmitter receptor blockers isolated RGCs from synaptic inputs: (in μM) 10 AP4, 40 DNQX, 30 AP5, 10 SR-95531, 50 TPMPA, 10 strychnine, and 50 tubocurarine. Extracellular spikes were high-pass filtered at 200 Hz and digitized at 20 kHz and were counted when exceeding 4 SD from the mean background voltage signal. Typically, each electrode recorded spikes from one to three individual RGCs. Principal component analysis of the spike waveforms was used for sorting spikes generated by individual cells (Offline Sorter, Plexon). Stimulation light was generated from a mercury arc lamp. Unfiltered broad spectrum light was used for BENAQ-treated retinas. Narrow band optical filters (Chroma) were used to deliver alternating intervals of 380 nm and 500 nm for stimulation of QAQ-treated as described previously (5,12). The Photoswitch Index (5) (PI) was established for individual retinas in light/darkness for treatment with BENAQ or in 380 nm/500 nm light for treatment with QAQ (11,12).
# Injections. Intravitreal injections: Adult mice and rats were intravitreally injected with drugs or viruses. Before injection, animals were anesthetized with isoflurane (2%) and their pupils were dilated with tropicamide (1%) and phenylephrine (2.5%). Proparacaine (0.5%) was used as a topical analgesic. Genteal was applied under a glass coverslip to keep the cornea lubricated. An incision was made through the sclera below the ora serrata with a 30G needle. Solutions were injected into the vitreous with a blunt-ended 33G Hamilton syringe. After injection, the antibiotic tobramycin (0.3%) was applied to the eye. Final drug concentrations (after 5-fold dilution in the vitreous) were: 100 nM all-trans retinoic acid (ATRA), 100 μM liarozole (24), 20 μM diethylaminobenzaldehyde (DEAB) (28,93), 50 μM citral, 500 nM BMS 493 (85), 1 μM retinaldehyde, and vehicle comprising of 1× phosphate buffered saline (PBS) containing 1% dimethyl sulfoxide (DMSO). Intravitreal injections were performed using AAV2 serotype only. WT and rd1 mice were injected with the RAR-reporter virus or the RARDN virus, at age 1-1.5 month-old. […]
smiles,measurement,setting,value
"CC1=C(/C=C/C(C)=C/C=C/C(C)=C/C(=O)O)C(C)(C)CCC1 [ATRA, all-trans retinoic acid]",cell death / toxicity (TUNEL),[1],does not cause retinal neuron degeneration; also recorded: non-toxic; also recorded: no cell death
CC1(C)CC=C(C#Cc2ccccc2)c2cc(/C=C/c3ccc(C(=O)O)cc3)ccc21 [BMS-493],spontaneous firing of rd1 RGCs (mean Firing Rate),"RGCs in rd1 retina [2]; rd1, 3-7 days after a single intravitreal injection of BMS-493, control 5.13±0.74 Hz",2.67±0.33 Hz
same,"spontaneous firing rates versus controls, in words","RGCs in rd1 retina [2]; rd1 retina, BMS-493 0.5 μM 3-7 days before, or AAV2-RARDN injected at P30, recorded at P90",significantly lower
same,"QAQ photosensitization of rd1 retina, in words",RGCs in rd1 retina [3]; rd1 mice injected intravitreally with BMS-493,prevented QAQ photosensitization
same,Photoswitch Index (PI) with BENAQ,"RGCs in rd1 retina [3]; rd1 retina treated with BMS-493 (intravitreal, 3-7 days), BENAQ, white light/darkness, mean±SEM",0.35±0.05
same,Photoswitch Index (PI) with QAQ,"RGCs in rd1 retina [3]; rd1 retina treated with BMS-493 (intravitreal, 3-7 days), QAQ 300 μM, 380/500 nm, mean±SEM",0.15±0.06
